Measurements from patent publication US20130136721A1, “Compositions and Methods of Generating a Differentiated Mesodermal Cell” (THE JOHNS HOPKINS UNIVERSITY, priority 2010, published 2013).
Entries after “also recorded” stand apart in the source; their conditions may differ.

Key:
Format in all cases: cell-based, human
H9 hESC = assay: Beating hEB assay (contracting hEB after forced aggregation cardiac differentiation); settings: for effect on cardiac differentiation, phase 2 medium: supplement in d0-d2 medium; for effect on cardiac differentiation, phase 2 medium / effect on cardiac differentiation, phase 3 medium: contracting hEB d9; for effect on cardiac differentiation, phase 3 medium: supplement in d2-d4 medium; for effect on cardiac differentiation, phase 4 medium: supplement in d4 onwards medium
From the text: The cardiac differentiation protocol was divided into four distinct phases for optimization (FIG. 3A): phase 1: uniform undifferentiated growth; phase 2: hEB formation/mesoderm induction; phase 3: hEB cardiac specification; phase 4: contracting cardiomyocyte development. […] After an initial round of optimizations had been completed, optimizations was repeated a second time to account for the new media formulations and then a third time to optimize the final media formulation. In some cases fourth and fifth repeats were performed to improve the statistical power of the results. For each variable tested, the bell-curve distribution of dose-response was determined. Results shown are averages of the 2nd-5th replicates (FIG. 2B).
For forced aggregation hEB differentiations, confluent hESC or hiPSC which had been grown on a commercially available extracellular matrix, Geltrex (Invitrogen) as monolayers for 3 to 13 passages were passaged with TrypLE Select and seeded at 2.5×10^6 per T25 flask. After 24 hours growth, cells were washed with PBS and treated with room temperature TrypLE Select for 1 minute at 37° C. Cells were seeded at 5000 cells per well in 96-well V-bottom uncoated plates (249952, NUNC) in 100 μL per well RPMI+PVA medium consisting of RPMI Media 1640 (with L-Glutamine), 4 mg mL-1 polyvinyl alcohol (P8136, Sigma, dissolved in RPMI at 4° C. for at least 72 hours, mixing by inversion every day), 1% chemically defined lipid concentrate, 10 μg mL-1 recombinant human insulin (Sigma), 400 μM 1-thioglycerol (Sigma), 25 ng mL-1 BMP4 and 5 ng mL-1 FGF2 (both from R&D systems), 1 μM Y-27632 (Calbiochem). This medium is not stable and was made fresh for each experiment. After 48 hours (on day 2) medium was aspirated with a Costar 8-channel aspirator (Corning) and replaced with RPMI+FBS medium consisting RPMI Media 1640, 20% characterized FBS (Hyclone), 400 μM 1-thioglycerol. On day 4 media was changed to RPMI+PVA without growth factors and hEB were transferred to 96-well U-bottom tissue culture treated plates (650180, Greiner Bio-One). Media was changed on d7 and every 3 days afterwards. hEB were visually assessed for contraction on d9 using a Nikon Eclipse Ti inverted tissue culture microscope with a TOKAI-HIT heated stage (Nikon). Images were captured using NIS-Elements (Nikon). […] For traditional cardiac differentiations using FBS, undirected differentiation was performed as previously described (Kehat et al. J Clin Invest 108, 407-414 (2001)): briefly, confluent H9 hESC grown as colonies on MEF were treated with collagenase IV for 5 minutes at 37° C. then washed from the plate using a 5 mL pipette. Cell clusters were then transferred to Petri dishes in 20% FBS medium for 7 days. hEB were then transferred to gelatin coated tissue culture plates. Media was changed every 3 days.
One single replicate consists of one 96-well plate. Repeat replicates were performed 1-4 months apart using a different vial of cells. Each experiment was repeated at least 3 times representing at least 288 hEB. Total number of hEB assessed in this work exceeds 80,000. Wells in which no hEB was detected due to pipeting error were excluded and accounted for approximately 1-5% of wells. P-values were established using unpaired two-tailed Student's t-test.

[1] = system: hESC-derived cardiomyocyte monolayer; assay: Voltage macromapping of cardiomyocyte monolayer (action potential duration); settings: for effect on action potential: 20 μM isoproterenol or 100 μM pinacidil added to cardiomyocyte monolayers or hEB; for action potential duration: 0.67 Hz pacing, mean±s.d., 20 μM isoproterenol or 100 μM pinacidil, control 363±137 ms
Experimental: (§1) Cardiac markers and structural protein expression was assessed using immunofluorescence staining. […] To assess quality of hPSC-derived cardiomyocytes that were generated using this method and suitability for future applications such as cardiotoxicity testing, the electrophysiological properties were assessed via optical mapping. hEB were either mechanically dissected and plated onto fibronectin-coated glass coverslips for micromapping, or approximately 200 hEB were dissociated into single cells and plated in a 10 mm diameter area as a confluent monolayer for macromapping. hEB and monolayers were then stained with either voltage- or calcium-sensitive dye and optically mapped to visualize spontaneous activity and response to electrical field stimulation (FIG. 12A). […] To assess cardioactive drug responsiveness, 20 μM isoproterenol or 100 μM pinacidil was added to cardiomyocyte monolayers or hEB to test for beta-adrenergic stimulation response and the presence of functional KATP channels, respectively. […] Contracting hEB derived from the hiPSC line 6.2 were tested in the same manner and yielded similar results.
For optical micromapping (Weinberg et al., Methods Mol Biol 660, 215-237 (2010), contracting hEB were mechanically dissected, plated on fibronectin-coated glass coverslips and given at least 5 days to attach. hEB were then stained with either 10 μM Rhod-2-AM calcium dye for 20 minutes or 10 μM di-4-ANEPPS voltage dye for 5 minutes. After several rinses with Tyrode's solution (135 mM NaCl, 5.4 mM KCl, 1.8 mM CaCl2, 1 mM MgCl2, 0.33 mM NaH2PO4, 5 mM HEPES, and 5 mM glucose), hEB were incubated with 30 μM blebbistatin for 15 minutes to inhibit excitation-contraction coupling and subsequently prevent signal distortion due to motion artifact. The absence of hEB contraction was confirmed visually. hEB were then excited at 530 nm to visualize spontaneous activity and response to electrical field stimulation. Imaging of transmembrane potential (Vm) or intracellular calcium (Cai) was performed using an Andor iXon+860 electron multiplying charged coupled device (EMCCD) camera (128×128 pixels) at 490 Hz sampling rate. […] Macromapping of hESC-CM monolayers was performed using contact fluorescent imaging, in which maps of Vm were recorded by placing the monolayer directly on top of a bundle of 253 optical fibers 1 mm in diameter, arranged in a tightly packed, 17-mmdiameter hexagonal array. […] To analyze data, the individual recorded signals recorded were spatially filtered using a 5×5 box filter, temporally filtered using a 10 point median filter, baseline-corrected by subtraction of a fitted 3rd order polynomial, and range-normalized. […] Uniformity of APD was assessed by the coefficient of variation. […]

H9 hEB = assay: Voltage optical micromapping of contracting hEB (action potential duration); settings: 20 μM isoproterenol, 4 hEB, mean±s.d., p≈0.01 paired t-test
Experimental: as §1, with “results. […]” for “results.”

Compound	effect on cardiac differentiation, phase 2 medium (H9 hESC)	effect on cardiac differentiation, phase 3 medium (H9 hESC)	also measured
OCC(O)CS (stereo not drawn) [1-thioglycerol]	resulted in high efficiency cardiac differentiation	most suitable antioxidant for this phase	effect on cardiac differentiation, phase 4 medium (H9 hESC): essential for this d4+ phase
O=C1O[C@H]([C@@H](O)CO)C(O)=C1O [L-ascorbic acid]	either did not further enhance differentiation or had negative effects on differentiation	Neither transferrin, L-ascorbic acid, lipids or NEAA enhanced this phase of differentiation	
NC(=O)CC[C@H](N)C(=O)O [L-glutamine]	either did not further enhance differentiation or had negative effects on differentiation	did not enhance cardiac differentiation	
C[C@@H](N)[C@H]1CC[C@H](C(=O)Nc2ccncc2)CC1 [Y-27632, reference compound]	further improved reproducibility and cardiac differentiation		
CC(C)NCC(O)c1ccc(O)c(O)c1 (stereo not drawn) [isoproterenol]			effect on action potential [1]: shortening of the action potential; action potential duration [1]: 262 ± 107 ms; shortening of the mean APD (H9 hEB): 23 ± 8 ms
CC(N/C(=N\C#N)Nc1ccncc1)C(C)(C)C (stereo not drawn) [pinacidil]			effect on action potential [1]: shortening of the action potential; action potential duration [1]: 257 ± 56 ms
FGF2: fibroblast growth factor 2		did not further enhance this phase; also recorded: did not enhance cardiac differentiation	
IGF1: growth factor titrated between 1-100 ng mL-1	none were found to have the same potency as BMP4		
IGF2: growth factor titrated between 1-100 ng mL-1	none were found to have the same potency as BMP4		
TGFB	none were found to have the same potency as BMP4		
WNT3A	none were found to have the same potency as BMP4		
insulin: recombinant human insulin (Sigma)		completely abrogated cardiac specification; also recorded: completely ablated cardiac differentiation	effect on cardiac differentiation, phase 4 medium (H9 hESC): did not effect this d4+ phase; effect on cardiac differentiation, xeno- and serum-free d2-d4 medium (H9 hESC; supplement in serum-free d2-d4 medium): inhibited cardiac differentiation
